These results are taken from ChEMBL document CHEMBL2440051, “Structure-activity relationships of lanostane-type triterpenoids from Ganoderma lingzhi as α-glucosidase inhibitors” (Bioorg Med Chem Lett, 2013).

SMILES strings stand for the structures.

The term IC50 denotes the concentration that gives 50% inhibition.

Experiment [1] is described as follows: Inhibition of alpha-glucosidase (unknown origin) using sucrose as substrate assessed as formation of glucose after 30 mins by glucose oxidase method. More on the design: species or system Homo sapiens.
Experiment [2] is filed under the species Homo sapiens. As to the kind of experiment: Ratio of acarbose IC50 to compound IC50 for alpha-glucosidase (unknown origin).

As for `COC(=O)C(C)CC(=O)C[C@@H](C)[C@H]1C[C@H](O)[C@@]2(C)C3=C(C(=O)C[C@]12C)[C@@]1(C)CCC(=O)C(C)(C)[C@@H]1C[C@@H]3O` (stereo partly drawn) [METHYL GANODERATE A], in experiment [1], the half-maximal inhibitory concentration (IC50) is above 600 µM. On the same count and under the same terms, in the case of `CC(CC(=O)C[C@@H](C)[C@H]1CC(=O)[C@@]2(C)C3=C(C(=O)[C@@H](O)[C@]12C)[C@@]1(C)CC[C@H](O)C(C)(C)[C@@H]1C[C@@H]3O)C(=O)O` (stereo partly drawn) [GANODERIC ACID G] it was above 600 µM. Consider `C[C@H](CCC=C(CO)CO)[C@H]1CC[C@@]2(C)C3=CC[C@H]4C(C)(C)C(=O)CC[C@]4(C)C3=CC[C@]12C` [GANODERIOL F], for which, in experiment [2], the Ratio IC50 was 3. In addition, the IC50 in experiment [1] amounted to 208 µM. For the molecule `C[C@H](CC[C@H](O)[C@](C)(O)CO)[C@H]1CC[C@@]2(C)C3=CC[C@H]4C(C)(C)C(=O)CC[C@]4(C)C3=CC[C@]12C` [GANODERMANONTRIOL], the half-maximal inhibitory concentration (IC50) in experiment [1] was 540 µM. Consider `CC(=O)O[C@@H]1C(=O)C2=C([C@@H](O)C[C@H]3C(C)(C)[C@@H](O)CC[C@]23C)[C@]2(C)C(=O)C[C@H]([C@H](C)CC(=O)CC(C)C(=O)O)[C@@]12C` (stereo partly drawn) [GANODERIC ACID K], for which the half-maximal inhibitory concentration (IC50) in experiment [1] is above 600 µM. Same read-out and setting: in the case of `C[C@H](CC(=O)C[C@@H](C)[C@H]1CC(=O)[C@@]2(C)C3=C(C(=O)C[C@]12C)[C@@]1(C)CCC(=O)C(C)(C)[C@@H]1C[C@@H]3O)C(=O)O` [GANODERIC ACID C1] it was above 600 µM. Take `CC(CC(=O)C[C@@H](C)[C@H]1CC(=O)[C@@]2(C)C3=C([C@@H](O)C[C@]12C)[C@@]1(C)CCC(=O)C(C)(C)[C@@H]1C[C@@H]3O)C(=O)O` (stereo partly drawn) [GANODERIC ACID DF]: the Ratio IC50 in experiment [2] was determined as 2.5. The IC50 in experiment [1] is 219 µM. For the molecule `C[C@H]1O[C@H](O[C@H]2[C@H](O)[C@@H](O)[C@@H](O[C@H]3[C@H](O)[C@@H](O)C(O)O[C@@H]3CO)O[C@@H]2CO)[C@H](O)[C@@H](O)[C@@H]1N[C@H]1C=C(CO)[C@@H](O)[C@H](O)[C@H]1O` (stereo partly drawn) [ACARBOSE], the IC50 in experiment [1] came to 522 µM. Turning to `CC(CC(=O)C[C@@H](C)[C@H]1CC(=O)[C@@]2(C)C3=C(C(=O)[C@@H](O)[C@]12C)[C@@]1(C)CC[C@H](O)C(C)(C)[C@@H]1CC3=O)C(=O)O` (stereo partly drawn) [GANODERIC ACID C6], in experiment [1], the IC50 was above 600 µM. The same measure, in the same setting: in the case of `C[C@H](CC(=O)C[C@@H](C)[C@H]1C[C@H](O)[C@@]2(C)C3=C(C(=O)C[C@]12C)[C@@]1(C)CC[C@H](O)C(C)(C)[C@@H]1C[C@@H]3O)C(=O)O` [GANODERIC ACID C2] it was above 600 µM.

Turning to `COC(=O)C(C)CC(=O)/C=C(\C)[C@H]1C[C@H](O)[C@@]2(C)C3=C(C(=O)C[C@]12C)[C@@]1(C)CCC(=O)C(C)(C)[C@@H]1C[C@@H]3O` (stereo partly drawn) [METHYL GANODERENATE A], the IC50 in experiment [1] was above 600 µM.

Consider `C[C@H](CC(=O)C[C@@H](C)[C@H]1C[C@H](O)[C@@]2(C)C3=C(C(=O)C[C@]12C)[C@@]1(C)CCC(=O)C(C)(C)[C@@H]1C[C@@H]3O)C(=O)O` [GANODERIC ACID A], for which, in experiment [1], the IC50 was 528 µM. Regarding `CC(CC(=O)C[C@@H](C)[C@H]1C[C@H](O)[C@@]2(C)C3=C(C(=O)C[C@]12C)[C@@]1(C)CC[C@H](O)C(C)(C)[C@@H]1CC3)C(=O)O` (stereo partly drawn) [GANOLUCIDIC ACID B], the IC50 in experiment [1] was above 600 µM. Same read-out and setting: in the case of `C/C(=C\C(=O)CC(C)C(=O)O)[C@H]1C[C@H](O)[C@@]2(C)C3=C(C(=O)C[C@]12C)[C@@]1(C)CCC(=O)C(C)(C)[C@@H]1C[C@@H]3O` (stereo partly drawn) [GANODERENIC ACID A] it was 445 µM. With `CC(CC(=O)C[C@@H](C)[C@H]1CC(=O)[C@@]2(C)C3=C(C(=O)C[C@]12C)[C@@]1(C)CCC(=O)C(C)(C)[C@@H]1C[C@@H]3O)C(=O)O` (stereo partly drawn) [GANODERIC ACID D], the IC50 in experiment [1] is above 600 µM.

Regarding `COC(=O)C(C)CC(=O)C[C@@H](C)[C@H]1CC(=O)[C@@]2(C)C3=C([C@@H](O)C[C@]12C)[C@@]1(C)CCC(=O)C(C)(C)[C@@H]1C[C@@H]3O` (stereo partly drawn), the 50% inhibitory concentration (IC50) in experiment [1] was above 600 µM. As for `C/C(=C\CC[C@@H](C)[C@H]1CC[C@@]2(C)C3=CC[C@H]4C(C)(C)[C@@H](O)CC[C@]4(C)C3=CC[C@]12C)CO` [GANODEROL B], the Ratio IC50 in experiment [2] was 5. Also, in experiment [1], the IC50 worked out at 110 µM. Consider `CC(CC(=O)C[C@@H](C)[C@H]1CC(=O)[C@@]2(C)C3=C(C(=O)C[C@]12C)[C@@]1(C)CC[C@H](O)C(C)(C)[C@@H]1C[C@@H]3O)C(=O)O` (stereo partly drawn) [GANODERIC ACID B], for which the IC50 in experiment [1] worked out at 464 µM.

For `CC(CC(=O)C[C@@H](C)[C@H]1C[C@H](O)[C@@]2(C)C3=C(C(=O)C[C@]12C)[C@@]1(C)CCC(=O)C(C)(C)[C@@H]1CC3=O)C(=O)O` (stereo partly drawn) [GANODERIC ACID J], in experiment [1], the IC50 is above 600 µM. As to `CC(=O)O[C@@H]1C(=O)C2=C(C(=O)C[C@H]3C(C)(C)[C@@H](O)CC[C@]23C)[C@]2(C)C(=O)C[C@H]([C@H](C)CC(=O)CC(C)C(=O)O)[C@@]12C` (stereo partly drawn) [GANODERIC ACID H], in experiment [1], the IC50 was above 600 µM.
